# Legend:
# Assay type in all cases: in vivo
# [1] = system: canarygrass (Phalaris minor); assay: Test B postemergence plant response; details: for Plant response rating, Canarygrass: Postemergence
# Method in brief: (§1)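 Plants at the 1- to 4-leaf stage (2 to 18 cm tall), grown in pots of peat moss/vermiculite medium with wetting agent and starter nutrients, received postemergence applications of test chemicals. After 13 to 15 days in a greenhouse, injury was rated visually against untreated controls on a 0 (no effect) to 100 (complete control) scale.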
# [2] = system: windgrass (Apera spica-venti); assay: Test B postemergence plant response; details: for Plant response rating, Windgrass: Postemergence
# Method in brief: as §1
# [3] = system: chickweed (Stellaria media); assay: Test B postemergence plant response; details: for Plant response rating, Chickweed: Postemergence
# Method in brief: as §1
# [4] = system: winter barley (Hordeum vulgare); assay: Test B postemergence plant response; details: for Barley plant response rating (0 to 100 scale): 62 g ai/ha, postemergence, 0 is no effect, 100 is complete control; for Plant response rating, Barley: Postemergence
# Method in brief: as §1
# [5] = system: green foxtail (Setaria viridis); assay: Test B pre-/postemergence plant response; details: for Plant response rating, Foxtail, Green: Postemergence
# Method in brief: (§2)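 Seeds were sown in loam soil/sand blend and treated preemergence with compound in non-phytotoxic solvent mixture containing surfactant; postemergence sprays, same formulation, went onto plants 2 to 18 cm (1- to 4-leaf stage) in peat-based planting medium. Greenhouse 13 to 15 days, then visual rating versus untreated controls, 0 (no effect) to 100 (complete control).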
# [6] = system: corn (Zea mays); assay: Test B pre-/postemergence plant response; details: for Plant response rating, Corn: Postemergence
# Method in brief: as §2
# [7] = system: goosegrass (Eleusine indica); assay: Test B pre-/postemergence plant response; details: for Plant response rating, Goosegrass: Postemergence
# Method in brief: as §2
# [8] = system: yellow nutsedge (Cyperus esculentus); assay: Test B pre-/postemergence plant response; details: for Plant response rating, Nutsedge, Yellow: Postemergence
# Method in brief: as §2
# [9] = system: giant foxtail (Setaria faberii); assay: Test B pre-/postemergence plant response; details: for Plant response rating, Foxtail, Giant: Postemergence
# Method in brief: as §2
# [10] = system: pigweed (Amaranthus retroflexus); assay: Test B pre-/postemergence plant response; details: for Plant response rating, Pigweed: Postemergence
# Method in brief: as §2
# [11] = system: soybean (Glycine max); assay: Test B pre-/postemergence plant response; details: for Plant response rating, Soybean: Postemergence
# Method in brief: as §2
# [12] = system: lambsquarters (Chenopodium album); assay: Test B pre-/postemergence plant response; details: for Plant response rating, Lambsquarters: Postemergence
# Method in brief: as §2
# [13] = system: johnsongrass (Sorghum halepense); assay: Test B pre-/postemergence plant response; details: for Plant response rating, Johnsongrass: Postemergence
# Method in brief: as §2
# [14] = system: velvetleaf (Abutilon theophrasti); assay: Test B pre-/postemergence plant response; details: for Plant response rating, Velvetleaf: Postemergence
# Method in brief: as §2
# [15] = 31 g ai/ha, 0 to 100 scale (0 no effect, 100 complete control)
# [16] = 125 g ai/ha, scale 0 to 100 (0 no effect, 100 complete control)
# [17] = 250 g ai/ha, scale 0 to 100 (0 no effect, 100 complete control), 13 to 15 days
# [18] = 62 g ai/ha, postemergence, 0 is no effect, 100 is complete control, 13 to 15 days
compound,measurement,setting,value
CCCn1c(-c2cccc(Cl)c2)ncc(C(=O)C2=C(O)CCCC2=O)c1=O [Compound 190],"Plant response rating, Canarygrass",[1]; [15],0
same,"Plant response rating, Canarygrass",[1]; [16],25
same,"Plant response rating, Canarygrass",[1]; [17],55
same,"Plant response rating, Windgrass",[2]; [15],15
same,"Plant response rating, Windgrass",[2]; [16],65
same,"Plant response rating, Windgrass",[2]; [17],65
same,"Plant response rating, Chickweed",[3]; [16],100
same,"Plant response rating, Chickweed",[3]; [17],100
same,Barley plant response rating (0 to 100 scale),[4]; 13 to 15 days,5
same,"Plant response rating, Barley",[4]; [15],0
same,"Plant response rating, Barley",[4]; [16],40
same,"Plant response rating, Barley",[4]; [17],70
same,"Plant response rating, Foxtail, Green",[5]; [15],25
same,"Plant response rating, Foxtail, Green",[5]; [16],45
same,"Plant response rating, Foxtail, Green",[5]; [17],70
same,"Plant response rating, Corn",[6]; [15],0
same,"Plant response rating, Corn",[6]; [16],40
same,"Plant response rating, Corn",[6]; [17],65
same,"Plant response rating, Goosegrass",[7]; [15],70
same,"Plant response rating, Goosegrass",[7]; [16],80
same,"Plant response rating, Goosegrass",[7]; [17],98
same,"Plant response rating, Nutsedge, Yellow",[8]; [15],35
same,"Plant response rating, Nutsedge, Yellow",[8]; [16],65
same,"Plant response rating, Nutsedge, Yellow",[8]; [17],75
same,"Plant response rating, Foxtail, Giant",[9]; [15],70
same,"Plant response rating, Foxtail, Giant",[9]; [16],90
same,"Plant response rating, Foxtail, Giant",[9]; [17],95
same,"Plant response rating, Pigweed",[10]; [15],65
same,"Plant response rating, Pigweed",[10]; [16],100
same,"Plant response rating, Pigweed",[10]; [17],100
same,"Plant response rating, Soybean",[11]; [15],80
same,"Plant response rating, Soybean",[11]; [16],95
same,"Plant response rating, Soybean",[11]; [17],98
same,"Plant response rating, Lambsquarters",[12]; [15],80
same,"Plant response rating, Lambsquarters",[12]; [16],100
same,"Plant response rating, Lambsquarters",[12]; [17],100
same,"Plant response rating, Johnsongrass",[13]; [15],60
same,"Plant response rating, Johnsongrass",[13]; [16],75
same,"Plant response rating, Johnsongrass",[13]; [17],80
same,"Plant response rating, Velvetleaf",[14]; [15],100
same,"Plant response rating, Velvetleaf",[14]; [16],100
same,"Plant response rating, Velvetleaf",[14]; [17],100
COCCn1c(-c2cccc(Cl)c2)ncc(C(=O)C2=C(O)CCCC2=O)c1=O [Compound 147],Canarygrass plant response rating (0 to 100 scale),[1]; [18],0
same,"Plant response rating, Canarygrass",[1]; [15],0
same,"Plant response rating, Canarygrass",[1]; [16],5
same,"Plant response rating, Canarygrass",[1]; [17],5
same,Windgrass plant response rating (0 to 100 scale),[2]; [18],50
same,"Plant response rating, Windgrass",[2]; [15],10
same,"Plant response rating, Windgrass",[2]; [16],55
same,"Plant response rating, Windgrass",[2]; [17],70
same,Chickweed plant response rating (0 to 100 scale),[3]; [18],90
same,"Plant response rating, Chickweed",[3]; [15],70
same,"Plant response rating, Chickweed",[3]; [16],98
same,"Plant response rating, Chickweed",[3]; [17],98
same,Barley plant response rating (0 to 100 scale),[4]; 13 to 15 days,0
same,"Plant response rating, Barley",[4]; [15],0
same,"Plant response rating, Barley",[4]; [16],0
same,"Plant response rating, Barley",[4]; [17],0
same,"Foxtail, Green plant response rating (0 to 100 scale)",[5]; [18],65
same,"Plant response rating, Foxtail, Green",[5]; [15],40
same,"Plant response rating, Foxtail, Green",[5]; [16],80
same,"Plant response rating, Foxtail, Green",[5]; [17],90
same,Corn plant response rating (0 to 100 scale),[6]; [18],15
same,"Plant response rating, Corn",[6]; [15],0
same,"Plant response rating, Corn",[6]; [16],25
same,"Plant response rating, Corn",[6]; [17],40
same,Goosegrass plant response rating (0 to 100 scale),[7]; [18],70
same,"Plant response rating, Goosegrass",[7]; [15],35
same,"Plant response rating, Goosegrass",[7]; [16],80
same,"Plant response rating, Goosegrass",[7]; [17],95
same,"Nutsedge, Yellow plant response rating (0 to 100 scale)",[8]; [18],60
same,"Plant response rating, Nutsedge, Yellow",[8]; [15],50
same,"Plant response rating, Nutsedge, Yellow",[8]; [16],70
same,"Plant response rating, Nutsedge, Yellow",[8]; [17],75
same,"Foxtail, Giant plant response rating (0 to 100 scale)",[9]; [18],80
same,"Plant response rating, Foxtail, Giant",[9]; [15],65
same,"Plant response rating, Foxtail, Giant",[9]; [16],85
same,"Plant response rating, Foxtail, Giant",[9]; [17],90
same,Pigweed plant response rating (0 to 100 scale),[10]; [18],95
same,"Plant response rating, Pigweed",[10]; [15],85
same,"Plant response rating, Pigweed",[10]; [16],100
same,"Plant response rating, Pigweed",[10]; [17],100
same,Soybean plant response rating (0 to 100 scale),[11]; [18],60
same,"Plant response rating, Soybean",[11]; [15],15
same,"Plant response rating, Soybean",[11]; [16],65
same,"Plant response rating, Soybean",[11]; [17],85
same,Lambsquarters plant response rating (0 to 100 scale),[12]; [18],95
same,"Plant response rating, Lambsquarters",[12]; [15],85
same,"Plant response rating, Lambsquarters",[12]; [16],98
same,"Plant response rating, Lambsquarters",[12]; [17],100
same,Johnsongrass plant response rating (0 to 100 scale),[13]; [18],40
same,"Plant response rating, Johnsongrass",[13]; [15],15
same,"Plant response rating, Johnsongrass",[13]; [16],60
same,"Plant response rating, Johnsongrass",[13]; [17],60
same,Velvetleaf plant response rating (0 to 100 scale),[14]; [18],80
same,"Plant response rating, Velvetleaf",[14]; [15],60
same,"Plant response rating, Velvetleaf",[14]; [16],95
same,"Plant response rating, Velvetleaf",[14]; [17],100

# — US8952024B2, “Herbicidal pyrimidone derivatives” (E I du Pont de Nemours and Company, priority 2009, dated 2015)
